# According to patent US20190151320A1, “APPLICATION OF MAPK SIGNALING PATHWAY INHIBITOR IN MANUFACTURE OF DRUGS FOR DELAYING DEGENERATION OF DOPAMINERGIC NEURONS” (FUZHOU UNIVERSITY, priority 2016, published 2019):
# System: dopaminergic neurons in the PPL brain region
# Test: Dopaminergic neuron morphology and quantity in PPL brain regions of PD model fruit flies after 30 days of drug feeding
# Format: in vivo, Drosophila melanogaster
# Settings: fruit fly PD models (alpha-synuclein overexpression, Lrrk2 overexpression, Parkin mutation, Pink1 mutation); for effect on degenerative death/loss of dopaminergic neurons in the PPL brain region (morphology and quantity): 1 μg/mL in feed for 30 days
# Description: Animal models of PD caused by alpha-synuclein transgene overexpression, Lrrk2 transgene overexpression, Parkin gene mutation and Pink1 gene mutation were established in the four model groups. Each group includes 90 fruit flies and each group was further equally divided into three groups, drug-feeding groups and non-drug-feeding control group, for testing. Starting from imago at the age of 5 days, the drug-feeding group was continuously fed with 0.1 μg/mL, 1 μg/mL U0126 (U0126 is dissolved in 1% DMSO) for 30 days and the non-drug-feeding control group was fed with 1% DMSO as a solvent control. After 30 days of drug or control solvent feeding, the brains of fruit flies were dissected and the dopamine neurons were labeled by the whole-tissue immunostaining of the brains of the fruit flies with an anti-dopamine hydroxylase antibody. The morphology and quantity of the dopamine neurons in the PPL regions in the brains of the fruit flies were observed microscopically to determine the effect of U0126 on the dopaminergic neurons in the local brain regions.
# Animal models of PD caused by alpha-synuclein transgene overexpression, Lrrk2 transgene overexpression, Parkin gene mutation and Pink1 gene mutation were established in the four model groups. Each group includes 90 fruit flies and each group was further equally divided into 2 drug-feeding groups and 1 non-drug-feeding control group for testing. […] The morphology and quantity of the dopamine neurons in the PPL regions in the brains of the fruit flies were observed microscopically to determine the effect of PD0325901 on the dopaminergic neurons in the local brain regions of the fruit flies.
# Animal models of PD caused by alpha-synuclein transgene overexpression, Lrrk2 transgene overexpression, Parkin gene mutation and Pink1 gene mutation were established in the four model groups. […] The morphology and quantity of the dopamine neurons in the PPL regions in the brains of the fruit flies were observed microscopically to determine the effect of trametinib on the dopaminergic neurons in the local brain regions of the fruit flies.
smiles,measurement,setting,value
O=C(NOC[C@H](O)CO)c1ccc(F)c(F)c1Nc1ccc(I)cc1F [PD0325901],effect on degenerative death/loss of dopaminergic neurons in the PPL brain region (morphology and quantity),,can effectively reverse the degenerative loss of the dopaminergic neurons
CC(=O)Nc1cccc(-n2c(=O)n(C3CC3)c(=O)c3c(Nc4ccc(I)cc4F)n(C)c(=O)c(C)c32)c1 [trametinib],effect on degenerative death of dopaminergic neurons in the PPL brain region (morphology and quantity),16.24 μM/mL in feed for 30 days,can effectively reverse the degenerative death of the dopaminergic neurons
N#CC(=C(/N)Sc1ccccc1N)/C(C#N)=C(\N)Sc1ccccc1N [U0126],effect on degenerative death/loss of dopaminergic neurons in the PPL brain region (morphology and quantity),,can effectively reverse the degenerative death of the dopaminergic neurons
